The assay concerns A549 adenocarcinoma cell line. In words: In vitro antitumor screening, MTS assay. In kind it is cell-based. The note with it: Homo sapiens. As for the experimental part:
The synthesized derivatives were tested for their antitumor activity adopting MTS assay against A549 adenocarcinoma cell line following the reported assay method In Riss et al. Results are shown in Table 2.

Where [1] appears, read: A549 cell line, read-out: IC50, MTS assay against A549 cell line.
Setting [2] is: A549 adenocarcinoma cell line, Table 2, read-out: IC50.

Where two headings read alike, the source gives them in different places.

The IC50 is the point on the concentration scale where inhibition reaches its midpoint.

Take `N#Cc1c(NC(=O)c2cccc(Br)c2)sc2c1CCCC2` [Compound 4]: under setting [1], the concentration for half-maximal inhibition (IC50) came out at 7.6 µM.

`N#Cc1c(NCc2ccc(Br)cc2)sc2c1CCCC2` [Compound 10]: the 50% inhibitory concentration (IC50) under setting [2] came out at 2.7 µM and the IC50 under setting [1] is 2.7 µM.

Consider `N#Cc1c(NC(=O)NCc2ccccc2)sc2c1CCCC2` [Compound 11], for which the IC50 came out at 1.6 µM under setting [2] and 1.6 µM under setting [1].

The values are drawn from patent publication US12624015B2, “JNK inhibitors as anticancer agents” (University of Iowa Research Foundation, priority 2019, dated 2026).
